# In article PMC9315884, “New Membrane Active Antibacterial and Antiviral Amphiphiles Derived from Heterocyclic Backbone of Pyridinium-4-Aldoxime” (Pharmaceuticals, 2022):
# Several values for one entry are separate records, joined by “and”; a condition that tells them apart may be missing. Identical values can stand only once. Like-named read-outs stand apart in the source and are kept apart here.
# Legend:
# [1] = test system: Salmonella enterica food isolate; assay: Broth microdilution assay (MIC); type: cell-based; conditions: 18 h, S. enterica food isolate
# Experimental: (§1) The antibacterial activity of all compounds was evaluated by determining the minimum inhibitory concentration (MIC), which is defined as the lowest concentration of the compound at which no visible bacterial growth is detected. The compounds were tested against representatives of Gram-positive and Gram-negative strains, including the ESKAPE bacterium Staphylococcus aureus ATCC25923 and the clinical isolate of methicillin-resistant S. aureus (MRSA), which are known for their pathogenicity.
# (§2) The collection included five Gram-positive strains, including Staphylococcus aureus (ATCC 25923 and a methicillin-resistant Staphylococcus aureus clinical strain MRSA), Bacillus cereus ATCC 14579, Enterococcus faecalis ATCC 29212, and Listeria monocytogenes ATCC 7644; and three Gram-negative strains: Escherichia coli ATCC 25922, Pseudomonas aeruginosa ATCC 27853 and the food isolate Salmonella enterica. All microbial strains were maintained at ™80 °C for long-term storage and subcultured on Mueller-Hinton (MH) agar (Biolife, Italy) prior to broth microdilution experiments. The MH plates were stored at +4 °C for no longer than one month.
# (§3) Antibacterial activity was evaluated using the Broth Microdilution Assay according to the Clinical and Laboratory Standard Institute’s Methods for Dilution Antimicrobial Susceptibility Test for Bacteria That Grow Aerobically; Approved Standard-Tenth Edition.
# (§4) The stock solution of QAS (10 mg/mL) was prepared in 4% DMSO. Then, 100 µL of the tested QAS was added to the first well of the microtiter plate. Twofold serial dilutions in Muller-Hinton broth were performed over the entire plate at a concentration range of 5 mg/mL to 5 µg/mL. To each well, 50 µL of mid-exponentially grown inoculum containing 10^5 CFU/mL in Mueller-Hinton broth was added and incubated at 37 °C for 18 hours. The minimum inhibitory concentration (MIC) was determined as the lowest concentration at which no visually detectable bacterial growth occurred in the wells.
# [2] = test system: methicillin-resistant Staphylococcus aureus clinical strain MRSA; assay: Broth microdilution assay (MIC); type: cell-based; conditions: MRSA, 18 h
# Experimental: as §1, §2, §3, §4
# [3] = test system: Bacillus cereus ATCC14579; assay: Broth microdilution assay (MIC); type: cell-based
# Experimental: as §1
# (§5) All microbial strains were maintained at ™80 °C for long-term storage and subcultured on Mueller-Hinton (MH) agar (Biolife, Italy) prior to broth microdilution experiments. The MH plates were stored at +4 °C for no longer than one month.
# as §3
# as §4, with “To each well, 50 µL of mid-exponentially grown inoculum containing 10^5 CFU/mL in Mueller-Hinton broth was added and incubated at 37 °C for 18 hours.” left out
# [4] = test system: Enterococcus faecalis ATCC29212; assay: Broth microdilution assay (MIC); type: cell-based
# Experimental: as §1, §5, §3
# as §4, with “To each well, 50 µL of mid-exponentially grown inoculum containing 10^5 CFU/mL in Mueller-Hinton broth was added and incubated at 37 °C for 18 hours.” left out
# [5] = test system: Escherichia coli ATCC25922; assay: Broth microdilution assay (MIC); type: cell-based; conditions: ATCC25922, 18 h
# Experimental: as §1, §5, §3
# as §4, with “To each well, 50 µL of mid-exponentially grown inoculum containing 10^5 CFU/mL in Mueller-Hinton broth was added and incubated at 37 °C for 18 hours.” left out
# [6] = test system: Listeria monocytogenes ATCC7644; assay: Broth microdilution assay (MIC); type: cell-based
# Experimental: as §1, §5, §3
# as §4, with “To each well, 50 µL of mid-exponentially grown inoculum containing 10^5 CFU/mL in Mueller-Hinton broth was added and incubated at 37 °C for 18 hours.” left out
# [7] = test system: Pseudomonas aeruginosa ATCC27853; assay: Broth microdilution assay (MIC); type: cell-based
# Experimental: as §1, §5, §3
# as §4, with “To each well, 50 µL of mid-exponentially grown inoculum containing 10^5 CFU/mL in Mueller-Hinton broth was added and incubated at 37 °C for 18 hours.” left out
# [8] = test system: Staphylococcus aureus ATCC25923; assay: Broth microdilution assay (MIC); type: cell-based; conditions: Staphylococcus aureus
# Experimental: as §1, §5, §3
# as §4, with “To each well, 50 µL of mid-exponentially grown inoculum containing 10^5 CFU/mL in Mueller-Hinton broth was added and incubated at 37 °C for 18 hours.” left out
# [9] = test system: Tobacco mosaic virus (TMV); assay: Antiphytoviral activity assay (local lesions on host plant leaves); type: in vivo, Tobacco mosaic virus on Datura stramonium; conditions: Datura stramonium leaves, compound 100 µg/mL inoculated simultaneously with TMV
# Experimental: Leaves of Nicotiana tabacum L. cv. Samsun plants systemically infected with Tobacco mosaic virus (TMV) were ground in 0.06 mol/L phosphate buffer, pH 7.0 (1:1, w/v) to prepare virus inocula. […] Leaves of the local host Datura stramonium L. were dusted with silicon carbide (Sigma-Aldrich, St. Louis, MO, USA) before virus inoculation, and the inoculum was diluted with inoculation buffer to obtain 5–20 lesions per inoculated leaf. Experiments were performed when the experimental plants reached the 4–6 leaf stage.
# The tested QAS (10 mg/mL) were dissolved in 4% DMSO and added to the virus inocula at a final concentration of 100 µg/mL. DMSO was added to the control virus inocula at the same concentration. The control and treated plants were then rubbed with the prepared inocula and the antiviral activity of the tested compounds was evaluated by the percentage inhibition of the number of local lesions on the leaves of the treated and control plants as described in [40]. The obtained data were analyzed in Excel (Microsoft Office) and significant differences were determined by t-test.
# [10] = 18 h, B. cereus ATCC14579, read-out: MIC
# [11] = 18 h, E. faecalis ATCC29212, read-out: MIC
# [12] = E. coli ATCC25922, read-out: MIC
# [13] = 18 h, L. monocytogenes ATCC7644, read-out: MIC
# [14] = 18 h, P. aeruginosa ATCC27853, read-out: MIC
# [15] = S. aureus ATCC25923, 18 h, 37 °C, read-out: MIC
SMILES,MIC [1],MIC [2] [µg/mL],"MIC [3, 10] [µg/mL]","MIC [4, 11]","MIC [5, 12] [µg/mL]","MIC [6, 13]","MIC [7, 14]","MIC [8, 15] [µg/mL]","MIC ([3]; ATCC14579, 18 h) [µg/mL]","MIC ([4]; ATCC29212, 18 h)",MIC ([5]; E. coli ATCC25922),"MIC ([6]; ATCC7644, 18 h)","MIC ([7]; ATCC27853, 18 h)","MIC ([8]; ATCC25923, 18 h) [µg/mL]",melting point [°C],MIC [5],Number of local lesions (LLN ± SD) [9],Percentage of inhibition of local lesions ([9]; vs control plants) [%]
ON=Cc1cc[n+](Cc2ccc(Cl)cc2)cc1 [Py-BnCl],2500 µg/mL and 7630 µM,2500,5000,5000 µg/mL and 15300 µM,310,2500 µg/mL and 7630 µM,5000 µg/mL and 15300 µM,1250,,,,,,,,,,
"ON=Cc1cc[n+](Cc2ccc(F)cc2)cc1.[Br-] [Py-BnF, N-p-fluorobenzyl-4-hydroxyiminomethylpyridinium bromide]",> 5000 µg/mL and > 16100 µM,> 5000,,,,,,,> 5000,> 5000 µg/mL and > 16100 µM,630 µg/mL,> 5000 µg/mL and > 16100 µM,> 5000 µg/mL and > 16100 µM,5000,181 to 183,,,
O=[N+]([O-])c1ccc(C[n+]2ccc(C=NO)cc2)cc1 [Py-BnNO2],5000 µg/mL and 14800 µM,> 5000,,,,,,,> 5000,> 5000 µg/mL and > 14800 µM,,> 5000 µg/mL and > 14800 µM,> 5000 µg/mL and > 14800 µM,5000,,2500 µg/mL and 7390 µM,,
"ON=Cc1cc[n+](Cc2ccc(OC(F)(F)F)cc2)cc1 [Py-BnOCF3, N-(p-trifluoromethoxy)benzyl-4-hydroxyiminomethylpyridinium bromide]",2500 µg/mL and 6630 µM,1250,2500,2500 µg/mL and 6630 µM,310,2500 µg/mL and 6630 µM,2500 µg/mL and 6630 µM,310,,,,,,,,,,
ON=Cc1cc[n+](Cc2ccccc2)cc1 [Py-Bn],> 5000 µg/mL and > 17000 µM,> 5000,,,,,,,> 5000,> 5000 µg/mL and > 17000 µM,,> 5000 µg/mL and > 17000 µM,> 5000 µg/mL and > 17000 µM,> 5000,,1250 µg/mL and 4260 µM,,
"ON=Cc1cc[n+](CCCCCCCCBr)cc1.[Br-] [Py-C8Br, N-(8-bromooctyl)-4-hydroxyiminomethylpyridinium bromide]",> 5000 µg/mL and > 12700 µM,2500,,,,,,,2500,2500 µg/mL and 6340 µM,1250 µg/mL and 3170 µM,1250 µg/mL and 3170 µM,> 5000 µg/mL and > 12700 µM,5000,100 to 101,,,
"ON=Cc1cc[n+](CCCCCCCCCCBr)cc1.[Br-] [Py-C10Br, N-(10-bromodecyl)-4-hydroxyiminomethylpyridinium bromide]",5000 µg/mL and 11800 µM,310,,,,,,,630,5000 µg/mL and 11800 µM,630 µg/mL and 1490 µM,5000 µg/mL and 11800 µM,> 5000 µg/mL and > 11800 µM,630,103 to 105,,,
"ON=Cc1cc[n+](CCCCCCCCCCCCBr)cc1.[Br-] [Py-C12Br, N-(12-bromododecyl)-4-hydroxyiminomethylpyridinium bromide]",2500 µg/mL and 5550 µM,310,,,,,,,630,1250 µg/mL and 2780 µM,630 µg/mL and 1400 µM,1250 µg/mL and 2780 µM,2500 µg/mL and 5550 µM,160,109 to 110,,6.3±1.6,57.7
